# Laboratory results: article PMC4398506, “Remodeling of host phosphatidylcholine by Chlamydia acyltransferase is regulated by acyl-CoA binding protein ACBD6 associated with lipid droplets” (MicrobiologyOpen, 2015)
# Biological target: T1, CT775 (Chlamydia LPCAT) (Chlamydia trachomatis, UniProt O84780)
# T1 construct: gene CT_775; full-length gene (253 residues predicted) in pET28a, His-tagged, expressed in E. coli BL21DE3; cleared lysate or membrane fraction, not purified
# Assay: radiometric TLC assay of […]PC formation from lysoPC
# Format: biochemical
# Settings: labelled compound; acyl donor with 20 umol/L egg lysoPC; pH 7.0, 37 C, Tween-20
# T1 sequence (O84780 entry or part of it): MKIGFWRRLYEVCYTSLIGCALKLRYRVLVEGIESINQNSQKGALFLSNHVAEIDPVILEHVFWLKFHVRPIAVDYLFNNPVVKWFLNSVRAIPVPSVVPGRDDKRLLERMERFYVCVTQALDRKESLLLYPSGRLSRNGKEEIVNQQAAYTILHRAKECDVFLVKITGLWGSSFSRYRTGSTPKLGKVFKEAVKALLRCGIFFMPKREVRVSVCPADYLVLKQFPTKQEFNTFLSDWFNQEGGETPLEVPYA
compound,measurement,value
CCCCCCCC/C=C\CCCCCCCC(=O)SCCNC(=O)CCNC(=O)[C@H](O)C(C)(C)COP(=O)(O)OP(=O)(O)OC[C@H]1O[C@@H](n2cnc3c(N)ncnc32)[C@H](O)[C@@H]1OP(=O)(O)O [C18:1-CoA],radiometric TLC assay of [14C]PC formation from lysoPC,The rate of PC formation by CT775 was dependent on the concentration of oleoyl-CoA
